Among the data in US8349880B2, “Bicyclic compounds for the reduction of beta-amyloid production” (Bristol-Myers Squibb Company, priority 2009, dated 2013) are IC50 values, retold here.

Some results are limits rather than exact numbers.

For one experiment, the system named is Aβ1-42 production. Briefly: Cellular assay for inhibition of Aβ1-42 production (H4 APP751 SWE clone 8.20). In kind it is cell-based. As to conditions: 19 h, H4 APP751 SWE clone 8.20 cells, 19 h incubation; read-out: Activity Rating (Aβ42 cellular IC50, given as a number). The method, boiled down: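 H4 cells stably expressing APP751 with the Swedish mutation (1.5×10^4 cells/well) incubated with compound for 19 h at 37° C in DMEM with 0.0125% BSA. Secreted Aβ42 measured overnight at 4° C by HTRF-type pairing of 565 (Aβ42 neoepitope) and 26D6 (N-terminal) antibodies. IC50 from curve fit.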
As to `COc1cc(Nc2nc3n(n2)CCCCC3(O)c2ccc(F)cc2)ccc1-n1cnc(Cl)c1` (centres unmarked) [Example 92, 2-(4-(4-chloro-1H-imidazol-1-yl)-3-methoxyphenylamino)-9-(4-fluorophenyl)-6,7,8,9-tetrahydro-5H-[1,2,4]triazolo[1,5-a]azepin-9-ol], the IC50 was determined as 11 nM.
The same measure, in the same setting: the result for `Cc1nc(C)n(-c2ccc(Nc3nc4n(n3)CCCCC4c3ccc(OCC(F)F)cc3)cc2F)n1` (centres unmarked) [Example 109, 9-(4-(2,2-difluoroethoxy)phenyl)-N-(4-(3,5-dimethyl-1H-1,2,4-triazol-1-yl)-3-fluorophenyl)-6,7,8,9-tetrahydro-5H-[1,2,4]triazolo[1,5-a]azepin-2-amine 2,2,2-trifluoroacetate] reads 240 nM.
Same read-out and setting: as for `COc1cc(Nc2nc3n(n2)CCCCC3c2ccc(S(C)(=O)=O)cc2)ccc1-n1cnc(C)n1` (centres unmarked) [Example 129, N-(3-methoxy-4-(3-methyl-1H-1,2,4-triazol-1-yl)phenyl)-9-(4-(methylsulfonyl)phenyl)-6,7,8,9-tetrahydro-5H-[1,2,4]-triazolo[1,5-a]azepin-2-amine 2,2,2-trifluoroacetate], the figure is 1000 nM; as for `COc1cc(Nc2nc3n(n2)CCC(N(C)C)CC3c2ccc(F)cc2)ccc1-n1cnc(Cl)c1` (centres unmarked) [Example 141, N2-(4-(4-chloro-1H-imidazol-1-yl)-3-methoxyphenyl)-9-(4-fluorophenyl)-N7,N7-dimethyl-6,7,8,9-tetrahydro-5H-[1,2,4]triazolo[1,5-a]azepine-2,7-diamine], 70 nM.

The same experiment, now with this note: 19 h, H4 APP751 SWE clone 8.20 cells, 19 h incubation; read-out: Activity Rating (based on Aβ42 cellular IC50 values).
Turning to `Cc1ncnn1-c1ccc(Nc2nc3n(n2)CCCCC3c2ccc(F)cc2)cc1F` (centres unmarked) [Example 93, N-(3-fluoro-4-(5-methyl-1H-1,2,4-triazol-1-yl)phenyl)-9-(4-fluorophenyl)-6,7,8,9-tetrahydro-5H-[1,2,4]triazolo[1,5-a]azepin-2-amine], the IC50 was 10 to 100 nM.
As to `Cc1ncn(-c2ccc(Nc3nc4n(n3)CCCCC4c3ccc(OC(F)(F)F)cc3)cc2F)n1` (centres unmarked) [Example 96, N-(3-fluoro-4-(3-methyl-1H-1,2,4-triazol-1-yl)phenyl)-9-(4-(trifluoromethoxy)phenyl)-6,7,8,9-tetrahydro-5H-[1,2,4]triazolo[1,5-a]azepin-2-amine], the IC50 was less than 10 nM.
Regarding `Cc1ncnn1-c1ccc(Nc2nc3n(n2)CCCCC3c2ccc(OC(F)(F)F)cc2)cc1F` (centres unmarked) [Example 99, N-(3-fluoro-4-(5-methyl-1H-1,2,4-triazol-1-yl)phenyl)-9-(4-(trifluoromethoxy)phenyl)-6,7,8,9-tetrahydro-5H-[1,2,4]triazolo[1,5-a]azepin-2-amine], the IC50 was in the range of 10 to 100 nM.
For the molecule `COc1cc(Nc2nc3n(n2)CCCCC3c2ccc(OC(C)C)cc2)ccc1-n1cnc(Cl)c1` (centres unmarked) [Example 102, N-(4-(4-chloro-1H-imidazol-1-yl)-3-methoxyphenyl)-9-(4-isopropoxyphenyl)-6,7,8,9-tetrahydro-5H-[1,2,4]triazolo azepin-2-amine], the IC50 was less than 10 nM.
With `COc1cc(Nc2nc3n(n2)CCCCC3c2ccc(OCC(F)(F)F)cc2)ccc1-n1cnc(Cl)c1` (centres unmarked) [Example 105, N-(4-(4-chloro-1H-imidazol-1-yl)-3-methoxyphenyl)-9-(4-(2,2,2-trifluoroethoxy)phenyl)-6,7,8,9-tetrahydro-5H-[1,2,4]triazolo[1,5-a]azepin-2-amine], the IC50 lay within 10 to 100 nM.
Same read-out and setting: the result for `Cc1ncn(-c2c(F)cc(Nc3nc4n(n3)CCCCC4c3ccc(OC(F)(F)F)cc3)cc2F)n1` (centres unmarked) [Example 108, N-(3,5-difluoro-4-(3-methyl-1H-1,2,4-triazol-1-yl)phenyl)-9-(4-(trifluoromethoxy)phenyl)-6,7,8,9-tetrahydro-5H-[1,2,4]triazolo[1,5-a]azepin-2-amine] reads 10 to 100 nM; that for `Cc1ncnn1-c1ccc(Nc2nc3n(n2)CCCCC3c2ccc(OCC(F)(F)F)cc2)cc1F` (centres unmarked) [Example 110, N-(3-fluoro-4-(5-methyl-1H-1,2,4-triazol-1-yl)phenyl)-9-(4-(2,2,2-trifluoroethoxy)phenyl)-6,7,8,9-tetrahydro-5H-[1,2,4]triazolo[1,5-a]azepin-2-amine], 10 to 100 nM.
As to `Cc1ncn(-c2ccc(Nc3nc4n(n3)CCCCC4c3ccc(OCC(F)(F)F)cc3)cc2F)n1` (centres unmarked) [Example 113, N-(3-fluoro-4-(3-methyl-1H-1,2,4-triazol-1-yl)phenyl)-9-(4-(2,2,2-trifluoroethoxy)phenyl)-6,7,8,9-tetrahydro-5H-[1,2,4]triazolo[1,5-a]azepin-2-amine], the IC50 was 10 to 100 nM.
On the same count and under the same terms, the result for `COc1cc(Nc2nc3n(n2)CCCCC3c2ccc(OCC(F)(F)F)cc2)c(F)cc1-n1cnc(C)n1` (centres unmarked) [Example 116, N-(2-fluoro-5-methoxy-4-(3-methyl-1H-1,2,4-triazol-1-yl)phenyl)-9-(4-(2,2,2-trifluoroethoxy)phenyl)-6,7,8,9-tetrahydro-5H-[1,2,4]triazolo[1,5-a]azepin-2-amine] reads 10 to 100 nM; that for `Cc1ncnn1-c1ccc(Nc2nc3n(n2)CCCCC3c2ccc(OCC(F)F)cc2)cc1F` (centres unmarked) [Example 119, 9-(4-(2,2-difluoroethoxy)phenyl)-N-(3-fluoro-4-(5-methyl-1H-1,2,4-triazol-1-yl)phenyl)-6,7,8,9-tetrahydro-5H-[1,2,4]triazolo[1,5-a]azepin-2-amine], 10 to 100 nM.
Still for that read-out and setting: the result for `Cc1ncn(-c2ccc(Nc3nc4n(n3)CCCC4c3ccc(OC(F)(F)F)cc3)cc2F)n1` (centres unmarked) [Example 122, N-(3-fluoro-4-(3-methyl-1H-1,2,4-triazol-1-yl)phenyl)-8-(4-(trifluoromethoxy)phenyl)-5,6,7,8-tetrahydro-[1,2,4]triazolo[1,5-a]pyridin-2-amine 2,2,2-trifluoroacetate] reads 10 to 100 nM; that for `COc1cc(Nc2nc3n(n2)CCCCC3c2ccc(OC(F)F)cc2)ccc1-n1cnc(C)n1` (centres unmarked) [Example 127, 9-(4-(difluoromethoxy)phenyl)-N-(3-methoxy-4-(3-methyl-1H-1,2,4-triazol-1-yl)phenyl)-6,7,8,9-tetrahydro-5H-[1,2,4]triazolo[1,5-a]azepin-2-amine 2,2,2-trifluoroacetate], 10 to 100 nM.
On the same count and under the same terms, the result for `COc1cc(Nc2nc3n(n2)CCCCC3c2ccc(OC(F)(F)F)c(F)c2)ccc1-n1cnc(C)n1` (centres unmarked) [Example 128, 9-(3-fluoro-4-(trifluoromethoxy)phenyl)-N-(3-methoxy-4-(3-methyl-1H-1,2,4-triazol-1-yl)phenyl)-6,7,8,9-tetrahydro-5H-[1,2,4]triazolo[1,5-a]azepin-2-amine 2,2,2-trifluoroacetate] reads 10 to 100 nM.
Regarding `COc1cc(Nc2nc3n(n2)CCCCC3c2ccc(S(=O)(=O)C(F)(F)F)cc2)ccc1-n1cnc(C)n1` (centres unmarked) [Example 130, N-(3-methoxy-4-(3-methyl-1H-1,2,4-triazol-1-yl)phenyl)-9-(4-(trifluoromethylsulfonyl)phenyl)-6,7,8,9-tetrahydro-5H-[1,2,4]triazolo[1,5-a]azepin-2-amine 2,2,2-trifluoroacetate], the IC50 was in the range of 10 to 100 nM.
For the molecule `CCOc1ccc(C2CCCCn3nc(Nc4ccc(-n5cnc(Cl)c5)c(OC)c4)nc32)cc1` (centres unmarked) [Example 131, N-(4-(4-chloro-1H-imidazol-1-yl)-3-methoxyphenyl)-9-(4-ethoxyphenyl)-6,7,8,9-tetrahydro-5H-[1,2,4]triazolo[1,5-a]azepin-2-amine 2,2,2-trifluoroacetate], the IC50 fell in the range of 10 to 100 nM.
On the same count and under the same terms, as for `CCOc1ccc(C2CCCCn3nc(Nc4ccc(-n5cnc(C)n5)c(OC)c4)nc32)cc1` (centres unmarked) [Example 132, 9-(4-ethoxyphenyl)-N-(3-methoxy-4-(3-methyl-1H-1,2,4-triazol-1-yl)phenyl)-6,7,8,9-tetrahydro-5H-[1,2,4]triazolo[1,5-a]azepin-2-amine 2,2,2-trifluoroacetate], the figure is 10 to 100 nM; as for `C=C1CCn2nc(Nc3ccc(-n4cnc(Cl)c4)c(OC)c3)nc2C(c2ccc(F)cc2)C1` (centres unmarked) [Example 133, N-(4-(4-chloro-1H-imidazol-1-yl)-3-methoxyphenyl)-9-(4-fluorophenyl)-7-methylene-6,7,8,9-tetrahydro-5H-[1,2,4]triazolo[1,5-a]azepin-2-amine 2,2,2-trifluoroacetate], 10 to 100 nM.
Still for that read-out and setting: as for `COc1cc(Nc2nc3n(n2)CCC(C)CC3c2ccc(F)cc2)ccc1-n1cnc(Cl)c1` (centres unmarked) [Example 136, N-(4-(4-chloro-1H-imidazol-1-yl)-3-methoxyphenyl)-9-(4-fluorophenyl)-7-methyl-6,7,8,9-tetrahydro-5H-[1,2,4]triazolo[1,5-a]azepin-2-amine], the figure is less than 10 nM.
The same measure, in the same setting: the result for `COc1cc(Nc2nc3n(n2)CCC(=O)CC3c2ccc(F)cc2)ccc1-n1cnc(Cl)c1` (centres unmarked) [Example 137, 2-(4-(4-chloro-1H-imidazol-1-yl)-3-methoxyphenylamino)-9-(4-fluorophenyl)-8,9-dihydro-5H-[1,2,4]triazolo[1,5-a]azepin-7(6H)-one 2,2,2-trifluoroacetate] reads less than 10 nM; that for `CO/N=C1/CCn2nc(Nc3ccc(-n4cnc(Cl)c4)c(OC)c3)nc2C(c2ccc(F)cc2)C1` (centres unmarked) [Example 138, (E)-2-(4-(4-chloro-1H-imidazol-1-yl)-3-methoxyphenylamino)-9-(4-fluorophenyl)-8,9-dihydro-5H-[1,2,4]triazolo[1,5-a]azepin-7(6H)-one O-methyl oxime 2,2,2-trifluoroacetate], 10 to 100 nM; that for `COc1cc(Nc2nc3n(n2)CCC(F)(F)CC3c2ccc(F)cc2)ccc1-n1cnc(Cl)c1` (centres unmarked) [Example 139, N-(4-(4-chloro-1H-imidazol-1-yl)-3-methoxyphenyl)-7,7-difluoro-9-(4-fluorophenyl)-6,7,8,9-tetrahydro-5H-[1,2,4]triazolo[1,5-a]azepin-2-amine 2,2,2-trifluoroacetate], 10 to 100 nM.
On to `CNC1CCn2nc(Nc3ccc(-n4cnc(Cl)c4)c(OC)c3)nc2C(c2ccc(F)cc2)C1` (centres unmarked) [Example 140, N2-(4-(4-chloro-1H-imidazol-1-yl)-3-methoxyphenyl)-9-(4-fluorophenyl)-N-7-methyl-6,7,8,9-tetrahydro-5H-[1,2,4]triazolo[1,5-a]azepine-2,7-diamine 2,2,2-trifluoroacetate], for which the IC50 was 10 to 100 nM.
